Test results published in patent publication US20150328220A1, “METHODS OF TREATING CHRONIC KIDNEY DISEASE CHARACTERIZED BY MACROALBUMINURIA” (Concert Pharmaceuticals, Inc., priority 2014, published 2015).

Columns and labels:
Type in all cases: in vivo, human
urinary fibronectin = assay: Phase 2 placebo-controlled clinical trial, 48 weeks: urinary fibronectin (fibrotic biomarker)
Procedure: (§1) A Phase 2 placebo-controlled clinical trial of Compound (V) was conducted in patients with type 2 diabetic kidney disease and macroalbuminuria. All patients enrolled in the clinical trial were concurrently treated with angiotensin modulators. The purpose of the trial was to compare Compound (V) to placebo in terms of safety and efficacy with respect to measures of renal function such as UACR, serum creatinine levels, and estimated glomerular filtration rate.
(§2) The clinical trial consists of three parts, two of which were completed and a third part that is on-going. Part 1 was a double-blind, parallel, two-arm, placebo-controlled study evaluating the safety and efficacy of 600 mg of Compound (V) twice daily for 24 weeks. 182 patients were enrolled in this first part of the trial and 151 patients completed Part 1. Part 2 was a blinded 24-week extension study in which all patients who completed Part 1 were eligible to continue receiving 600 mg of Compound (V) or placebo twice daily. 143 patients were enrolled in this part of the clinical trial and have completed dosing. 123 of the 143 patients that were enrolled in Part 2 of the clinical trial completed Part 2. The combined 48 weeks of data from Parts 1 and 2 of the clinical trial have been analyzed. 102 patients enrolled in Part 3 which is a 48 week open-label extension study that is on-going. […]

[1] = tested on: patients with type 2 diabetic kidney disease and macroalbuminuria; assay: Phase 2 placebo-controlled clinical trial, 48 weeks: serum creatinine levels; conditions: for patients who experienced a 50% or greater increase in serum creatinine levels: after 48 weeks
Procedure: as §1
The clinical trial consists of three parts, two of which were completed and a third part that is on-going. Part 1 was a double-blind, parallel, two-arm, placebo-controlled study evaluating the safety and efficacy of 600 mg of Compound (V) twice daily for 24 weeks. 182 patients were enrolled in this first part of the trial and 151 patients completed Part 1. Part 2 was a blinded 24-week extension study in which all patients who completed Part 1 were eligible to continue receiving 600 mg of Compound (V) or placebo twice daily. 143 patients were enrolled in this part of the clinical trial and have completed dosing. 123 of the 143 patients that were enrolled in Part 2 of the clinical trial completed Part 2. The combined 48 weeks of data from Parts 1 and 2 of the clinical trial have been analyzed. 102 patients enrolled in Part 3 which is a 48 week open-label extension study that is on-going. All patients who completed Part 2 were eligible to receive 600 mg of Compound (V) twice daily.
The key criteria for patients to be included in the clinical trial were (a) eGFR from 23 to 89 mL/min/1.73 m^2, a measure of kidney function which indicates mild to moderately severe type 2 diabetic kidney disease; (b) having been on a stable angiotensin modulation regimen for a minimum of four weeks prior to initiating screening and nine weeks prior to initiating dosing; (c) blood pressure less than or equal to 145/90 mm Hg; (d) glycosylated hemoglobin A1c (HbA1c) less than or equal to 10.5%, and (e) UACR greater than or equal to 200 mg/g in male patients and 300 mg/g in female patients, ratios of albumin to creatinine that are indicative of substantial kidney damage in men and women, but not more than 5,000 mg/g, a ratio indicative of severe kidney disease.

plasma collagen IV = assay: Phase 2 placebo-controlled clinical trial, 48 weeks: plasma collagen IV (fibrotic biomarker); conditions: week 48 (FIG. 3)
Procedure: as §1, §2

`[2H]C([2H])([2H])[C@H](O)C([2H])([2H])CCCn1c(=O)c2c(ncn2C)n(C)c1=O` [Compound (V)] was tested, and the “less urine fibronectin versus placebo” value (urinary fibronectin; week 48, overall population (FIG. 1)) was 59%, the “decrease in urine fibronectin relative to placebo” value (urinary fibronectin; week 48, subpopulation having UACR greater than 850 mg/g, p<0.01 (FIG. 2)) was 73% and the “increase in mean serum creatinine level over the 48 weeks of treatment” value ([1]; 600 mg twice daily, 48 weeks, 65 patients, overall population, preliminary analysis) was 0.13 mg/dL. The “patients who experienced a 50% or greater increase in serum creatinine levels” value ([1]; overall population, one out of 65 patients, p=0.026 vs placebo, post-hoc) was 1.5%, the “patients who experienced a 50% or greater increase in serum creatinine levels” value ([1]; subpopulation having UACR greater than 850 mg/g, one out of 31 patients, p<0.0409 vs placebo) was 3.1% and the “improvement in serum creatinine increase as compared to placebo” value ([1]; at 48 weeks, 600 mg twice daily, p=0.057 two-tailed) was 38%. For the same compound, the “less plasma collagen IV versus placebo” value (plasma collagen IV) was 18%.
